Tests used:
[1] = target: JAK1 (Homo sapiens (Human), UniProt P23458); assay: Biochemical JAK1 kinase assay (LanthaScreen)
Outline: (§1)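 GST-JAK + GFP-STAT1 peptide, HEPES pH 7.5/MgCl2/EGTA/Brij-35 buffer; cpd preincubation 1 h RT; ATP start, 1 h RT; stop with 10 mM EDTA + 2 nM Tb-anti-pSTAT1; TR-FRET 520/495. 4-parameter IC50 → pKi (Cheng-Prusoff).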

[2] = target: JAK2 (Homo sapiens (Human), UniProt O60674); assay: Biochemical JAK2 kinase assay (LanthaScreen)
Outline: as §1

[3] = tested on: IL-2 stimulated STAT5 phosphorylation in Tall-1 human T cell line (JAK3); assay: Cellular JAK3 potency assay: inhibition of IL-2 stimulated pSTAT5 in Tall-1 T cells; assay type: cell-based; details: IL-2 stimulated pSTAT5, Tall-1 T cells
Outline: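 AlphaLISA SureFire Ultra measures STAT5 Tyr694/699 phosphorylation in lysed Tall-1 human T cells. Cells were exposed to compound for 1 h at 37 °C before a 30 min IL-2 challenge (300 ng/ml final). Values are pIC50 means with standard deviation from signal-versus-concentration curves.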

[4] = target: JAK3 (Homo sapiens (Human), UniProt P52333); assay: Biochemical JAK3 kinase assay (LanthaScreen); details: for JAK3 (pKi)-JAK1 (pKi): selectivity JAK3 over JAK1, difference of pKi
JAK3, sequence (P52333 whole entry): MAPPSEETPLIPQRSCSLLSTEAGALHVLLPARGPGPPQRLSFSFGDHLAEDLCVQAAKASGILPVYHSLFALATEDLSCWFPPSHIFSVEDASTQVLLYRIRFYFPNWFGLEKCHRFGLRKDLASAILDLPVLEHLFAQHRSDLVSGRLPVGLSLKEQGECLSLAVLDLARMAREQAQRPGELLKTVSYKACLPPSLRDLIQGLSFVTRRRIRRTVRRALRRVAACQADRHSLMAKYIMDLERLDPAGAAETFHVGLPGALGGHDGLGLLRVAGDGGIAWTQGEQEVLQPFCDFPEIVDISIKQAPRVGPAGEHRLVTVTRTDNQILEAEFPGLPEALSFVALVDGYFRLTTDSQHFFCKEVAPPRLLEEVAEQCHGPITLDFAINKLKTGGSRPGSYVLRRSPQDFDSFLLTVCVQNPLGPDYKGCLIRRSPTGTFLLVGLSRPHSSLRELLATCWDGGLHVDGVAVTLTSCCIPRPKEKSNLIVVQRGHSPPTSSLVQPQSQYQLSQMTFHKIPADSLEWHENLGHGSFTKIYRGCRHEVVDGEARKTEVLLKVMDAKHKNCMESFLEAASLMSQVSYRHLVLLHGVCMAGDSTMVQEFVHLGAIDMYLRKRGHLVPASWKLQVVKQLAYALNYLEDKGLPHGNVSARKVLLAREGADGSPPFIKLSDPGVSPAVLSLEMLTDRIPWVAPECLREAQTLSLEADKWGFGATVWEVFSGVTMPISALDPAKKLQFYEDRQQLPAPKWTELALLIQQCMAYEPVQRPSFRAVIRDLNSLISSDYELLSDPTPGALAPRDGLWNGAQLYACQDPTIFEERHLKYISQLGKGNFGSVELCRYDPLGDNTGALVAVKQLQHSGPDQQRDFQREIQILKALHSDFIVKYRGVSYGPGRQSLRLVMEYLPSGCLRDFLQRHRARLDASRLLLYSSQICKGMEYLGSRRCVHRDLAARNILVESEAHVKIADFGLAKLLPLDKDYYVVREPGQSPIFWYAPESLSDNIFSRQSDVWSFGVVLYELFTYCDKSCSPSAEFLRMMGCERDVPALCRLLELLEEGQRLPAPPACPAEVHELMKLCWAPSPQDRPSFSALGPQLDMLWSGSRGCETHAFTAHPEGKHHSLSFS
Outline: as §1

[5] = target: Tyk2 (Homo sapiens (Human), UniProt P29597); assay: Biochemical Tyk2 kinase assay (LanthaScreen)
Tyk2, sequence (P29597 whole entry): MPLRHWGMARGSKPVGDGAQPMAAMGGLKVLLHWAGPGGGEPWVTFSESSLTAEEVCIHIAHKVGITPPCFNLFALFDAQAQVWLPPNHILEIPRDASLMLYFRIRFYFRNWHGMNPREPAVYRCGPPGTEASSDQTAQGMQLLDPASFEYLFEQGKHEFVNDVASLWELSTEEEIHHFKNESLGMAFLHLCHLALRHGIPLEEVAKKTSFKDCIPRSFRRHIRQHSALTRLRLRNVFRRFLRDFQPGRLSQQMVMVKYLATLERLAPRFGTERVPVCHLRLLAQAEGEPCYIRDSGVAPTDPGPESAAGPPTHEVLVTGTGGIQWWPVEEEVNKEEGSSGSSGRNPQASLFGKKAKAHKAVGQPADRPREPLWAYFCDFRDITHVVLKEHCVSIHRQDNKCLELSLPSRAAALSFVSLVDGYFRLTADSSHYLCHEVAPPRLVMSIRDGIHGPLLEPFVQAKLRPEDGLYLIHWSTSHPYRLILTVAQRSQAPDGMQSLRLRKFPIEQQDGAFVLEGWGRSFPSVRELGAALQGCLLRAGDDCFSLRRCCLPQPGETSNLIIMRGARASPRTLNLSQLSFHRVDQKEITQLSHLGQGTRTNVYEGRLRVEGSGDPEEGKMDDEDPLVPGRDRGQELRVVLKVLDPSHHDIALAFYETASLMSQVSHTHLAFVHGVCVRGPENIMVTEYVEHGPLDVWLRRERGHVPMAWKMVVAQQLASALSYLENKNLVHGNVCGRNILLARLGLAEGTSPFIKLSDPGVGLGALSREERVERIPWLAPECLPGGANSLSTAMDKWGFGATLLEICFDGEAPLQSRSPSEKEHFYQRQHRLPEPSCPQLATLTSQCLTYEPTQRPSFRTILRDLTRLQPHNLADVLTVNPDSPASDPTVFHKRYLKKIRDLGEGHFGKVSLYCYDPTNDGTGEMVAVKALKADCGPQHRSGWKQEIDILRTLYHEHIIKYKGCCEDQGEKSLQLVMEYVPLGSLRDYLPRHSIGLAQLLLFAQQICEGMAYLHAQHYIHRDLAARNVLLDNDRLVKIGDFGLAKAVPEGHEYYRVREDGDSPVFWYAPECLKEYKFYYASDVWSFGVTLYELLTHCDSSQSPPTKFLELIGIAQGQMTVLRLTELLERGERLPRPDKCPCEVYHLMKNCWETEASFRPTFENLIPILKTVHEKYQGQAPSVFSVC
Outline: as §1

[6] = tested on: Caco-2 cell monolayers; assay: Caco-2 permeation assay; assay type: in vitro ADME; details: 5 μM, A-B direction, with Verapamil (25 μM)
Description: Assay 4: Caco-2 Permeation Assay
The Caco-2 permeation assay was performed to model the ability of test compounds to pass through the intestine and get into the blood stream after oral administration. The rate at which test compounds in solution permeate a cell monolayer designed to mimic the tight junction of human small intestinal monolayers was determined.
CacoReady 24-well transwell plates were obtained from ADMEcell (Alameda, Calif.). The compounds were evaluated at a concentration of 5 μM from 10 mM DMSO stock solutions in duplicate (n=2). The passive permeability of the compounds tested was evaluated using Caco-2 cell monolayers along with Verapamil (25 μM) to inhibit P-gp transport proteins in the apical to basolateral (A-B) direction. The experiment was conducted in a 37° C., 5% CO2 incubator. Caco-2 culture media consisted of standard filtered DMEM, FCS 10%, L-Glutamine 1% and PenStrep 1%. Basal assay plate was prepared by adding 750 μL of transport buffer to A-B wells. A CacoReady™ plate was prepared by removing the Caco-2 media from the apical wells and replacing with fresh transport media (200 μL repeated for a total of 3 washes). Blank media (200 μL) was then replaced with diluted compound for A-B wells. To begin the incubation, the basal plate was removed from the incubator and the apical section was added on top of it. Samples (40 μL) were collected from the apical and basal compartments for time zero (t0). Samples were collected again after 120 minutes (t120) from the apical and basal compartments. All samples were diluted and prepared for bioanalysis by LC-MS/MS. The permeation coefficient (Kp, mean A to B+ Verapamil Papparent) in cm/sec was calculated as dQ (flux)/(dt×Area×concentration).
In this assay, a Kp value less than about 5×10^−6 cm/sec is considered favorable to minimize systemic exposure and target the colon. A Kp value less than about 10×10^−6 cm/sec may also be sufficient to minimize systemic exposure and target the colon.

JAK1, sequence (P23458 whole entry): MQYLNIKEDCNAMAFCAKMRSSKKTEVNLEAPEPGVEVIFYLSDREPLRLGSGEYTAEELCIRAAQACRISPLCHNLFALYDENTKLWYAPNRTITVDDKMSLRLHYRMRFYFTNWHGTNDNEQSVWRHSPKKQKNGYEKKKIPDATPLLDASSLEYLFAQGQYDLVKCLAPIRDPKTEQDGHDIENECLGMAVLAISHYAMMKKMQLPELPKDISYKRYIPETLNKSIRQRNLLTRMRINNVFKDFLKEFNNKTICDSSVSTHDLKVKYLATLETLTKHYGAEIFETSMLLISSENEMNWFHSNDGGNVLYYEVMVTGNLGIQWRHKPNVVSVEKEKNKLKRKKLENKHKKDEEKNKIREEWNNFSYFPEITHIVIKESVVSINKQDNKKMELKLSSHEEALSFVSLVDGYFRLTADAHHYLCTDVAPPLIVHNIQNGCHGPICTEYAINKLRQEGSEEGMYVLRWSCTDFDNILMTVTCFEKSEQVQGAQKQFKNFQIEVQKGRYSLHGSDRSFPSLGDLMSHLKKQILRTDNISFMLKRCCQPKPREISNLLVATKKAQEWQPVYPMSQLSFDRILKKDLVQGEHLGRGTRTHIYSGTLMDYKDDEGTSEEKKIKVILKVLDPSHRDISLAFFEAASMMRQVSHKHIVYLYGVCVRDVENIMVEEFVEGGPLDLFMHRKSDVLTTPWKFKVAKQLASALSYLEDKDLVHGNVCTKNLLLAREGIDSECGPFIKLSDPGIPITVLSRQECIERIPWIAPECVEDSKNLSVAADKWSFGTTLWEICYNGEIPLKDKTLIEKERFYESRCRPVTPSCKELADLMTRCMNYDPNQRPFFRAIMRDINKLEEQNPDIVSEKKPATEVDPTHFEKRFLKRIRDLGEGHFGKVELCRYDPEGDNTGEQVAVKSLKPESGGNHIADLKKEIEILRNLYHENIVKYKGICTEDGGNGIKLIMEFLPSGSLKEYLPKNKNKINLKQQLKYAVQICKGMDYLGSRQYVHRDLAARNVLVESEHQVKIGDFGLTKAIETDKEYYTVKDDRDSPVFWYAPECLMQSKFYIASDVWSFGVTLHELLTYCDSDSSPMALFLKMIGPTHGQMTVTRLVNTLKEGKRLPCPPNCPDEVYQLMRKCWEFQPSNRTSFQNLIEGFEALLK
JAK2, sequence (O60674 whole entry): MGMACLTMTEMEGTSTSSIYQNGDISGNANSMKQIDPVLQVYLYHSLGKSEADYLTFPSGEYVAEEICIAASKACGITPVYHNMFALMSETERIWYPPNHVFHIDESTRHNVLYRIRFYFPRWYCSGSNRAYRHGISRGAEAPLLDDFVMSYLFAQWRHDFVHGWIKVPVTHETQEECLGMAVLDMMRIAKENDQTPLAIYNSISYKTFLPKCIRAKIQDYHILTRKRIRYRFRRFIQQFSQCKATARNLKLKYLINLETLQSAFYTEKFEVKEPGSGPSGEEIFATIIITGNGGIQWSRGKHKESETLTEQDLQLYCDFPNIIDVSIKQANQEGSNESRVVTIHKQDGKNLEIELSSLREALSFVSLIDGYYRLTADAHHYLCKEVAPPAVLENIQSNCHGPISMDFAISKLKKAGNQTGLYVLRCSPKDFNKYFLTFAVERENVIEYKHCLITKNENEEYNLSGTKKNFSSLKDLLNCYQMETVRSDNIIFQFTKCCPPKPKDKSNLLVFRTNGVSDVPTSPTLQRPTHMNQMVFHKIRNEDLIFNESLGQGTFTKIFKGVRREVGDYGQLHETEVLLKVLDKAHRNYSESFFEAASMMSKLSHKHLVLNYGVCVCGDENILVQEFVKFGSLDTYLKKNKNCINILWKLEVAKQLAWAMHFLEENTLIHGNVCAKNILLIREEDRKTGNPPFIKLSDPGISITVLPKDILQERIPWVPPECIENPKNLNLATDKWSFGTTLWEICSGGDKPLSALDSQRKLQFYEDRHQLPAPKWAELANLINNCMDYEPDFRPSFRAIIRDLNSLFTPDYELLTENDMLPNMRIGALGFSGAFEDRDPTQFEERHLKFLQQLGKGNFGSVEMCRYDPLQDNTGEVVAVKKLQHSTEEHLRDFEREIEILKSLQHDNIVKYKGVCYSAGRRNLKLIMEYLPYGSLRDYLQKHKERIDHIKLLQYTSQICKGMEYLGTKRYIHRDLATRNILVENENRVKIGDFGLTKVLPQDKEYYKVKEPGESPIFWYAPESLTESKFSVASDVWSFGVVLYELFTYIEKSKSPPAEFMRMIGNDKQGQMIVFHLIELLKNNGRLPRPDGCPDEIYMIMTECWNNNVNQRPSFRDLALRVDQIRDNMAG

SMILES | JAK 1 (pKi) [1] | JAK 2 (pKi) [2] | Tall-1 (pIC50) [3] | JAK 3 (pKi) [4] | JAK3 (pKi)-JAK1 (pKi) [4] | Tyk 2 (pKi) [5] | Caco Kp [6]
C=CC(=O)N1CCN(CCn2c(=O)ccc3cnc(Nc4ccc(N5CCN(CCOC)CC5)cc4)nc32)CC1 [Example 208] | E (E represents a pKi value of 7 or below (Ki of 100 nM or above)) | E (E represents a pKi value of 7 or below (Ki of 100 nM or above)) | B (B represents a pC50 value between 6.7 (included) and 7.5 (IC50 between 200 nM and 32 nM)) | B (B represents pKi value between 9 and 10 (Ki between 1 nM and 0.1 nM)) | A (A represents a value of 3 or above) | E (E represents a pKi value of 7 or below (Ki of 100 nM or above)) | B (B represents a value between 5×10^−6 and 10×10^−6 cm/sec)
C=CC(=O)N1CCN(CCn2c(=O)ccc3cnc(Nc4ccc(N5CCN(C(=O)OC)CC5)cc4)nc32)CC1 [Example 145] | E (E represents a pKi value of 7 or below (Ki of 100 nM or above)) | E (E represents a pKi value of 7 or below (Ki of 100 nM or above)) | B (B represents a pC50 value between 6.7 (included) and 7.5 (IC50 between 200 nM and 32 nM)) | B (B represents pKi value between 9 and 10 (Ki between 1 nM and 0.1 nM)) | A (A represents a value of 3 or above) | E (E represents a pKi value of 7 or below (Ki of 100 nM or above)) | B (B represents a value between 5×10^−6 and 10×10^−6 cm/sec)
C=CC(=O)N1CCN(CCn2c(=O)ccc3cnc(Nc4cnn(C)c4)nc32)CC12CC2 [Example 32] | E (E represents a pKi value of 7 or below (Ki of 100 nM or above)) | E (E represents a pKi value of 7 or below (Ki of 100 nM or above)) | B (B represents a pC50 value between 6.7 (included) and 7.5 (IC50 between 200 nM and 32 nM)) | B (B represents pKi value between 9 and 10 (Ki between 1 nM and 0.1 nM)) | A (A represents a value of 3 or above) | E (E represents a pKi value of 7 or below (Ki of 100 nM or above)) | B (B represents a value between 5×10^−6 and 10×10^−6 cm/sec)
C=CC(=O)N1CCN(CCn2c(=O)ccc3cnc(Nc4ccc(CN5CCOCC5)cc4)nc32)CC1 [Example 80] | E (E represents a pKi value of 7 or below (Ki of 100 nM or above)) | E (E represents a pKi value of 7 or below (Ki of 100 nM or above)) | B (B represents a pC50 value between 6.7 (included) and 7.5 (IC50 between 200 nM and 32 nM)) | B (B represents pKi value between 9 and 10 (Ki between 1 nM and 0.1 nM)) | A (A represents a value of 3 or above) | E (E represents a pKi value of 7 or below (Ki of 100 nM or above)) | C (C represents a value between 10×10^−6 and 30×10^−6 cm/sec)
C=CC(=O)N1CCN(CCn2c(=O)ccc3cnc(Nc4ccc(N5CCN(C)CC5)cc4)nc32)[C@@H](CO)C1 [Example 193] | E (E represents a pKi value of 7 or below (Ki of 100 nM or above)) | E (E represents a pKi value of 7 or below (Ki of 100 nM or above)) | B (B represents a pC50 value between 6.7 (included) and 7.5 (IC50 between 200 nM and 32 nM)) | B (B represents pKi value between 9 and 10 (Ki between 1 nM and 0.1 nM)) | A (A represents a value of 3 or above) | E (E represents a pKi value of 7 or below (Ki of 100 nM or above)) | A (A represents a value below 5×10^−6 cm/sec)

Source: US11697648B2, “Fused pyrimidine pyridinone compounds as JAK inhibitors” (THERAVANCE BIOPHARMA R&D IP, LLC, priority 2019, dated 2023)
